Like-named read-outs stand apart in the source and are kept apart here.
What was measured:
[1] = test system: hyperlipidemic albino rats; parameters: method as in doi:10.1076/phbi.37.1.37.6314; details: cited from earlier work
[2] = Stability of PDC in rat plasma QC samples under various storage conditions; format: in vitro ADME; details: n = 6
Experimental: The results were compared with those obtained with freshly prepared QC samples. It could be seen from Table 3 that the results are well within the acceptance limits. Stability of PDC in plasma was tested by the analysis of six replicates of QC samples […] exposed to various storage conditions. To assess the short-term stability study, QC samples were kept at 25 °C for at least 4 h and samples were processed at different time points and were determined and compared with the freshly prepared QC samples. For the long-term stability, QC samples were determined after storage of the plasma samples at −20 °C for 2 months. For freeze-thaw stability, QC samples were subjected to three freeze/thaw cycles (room temperature to −20 °C). For post-preparation stability, the processed QC samples stored in the autosampler trials for 12 h at 4 °C, were analyzed and compared with the freshly prepared QC samples.

[3] = Pharmacokinetic study of PDC in rat plasma after oral administration of pure PDC or IRE (LC-MS/MS); format: in vivo, Sprague-Dawley rats; details: male, Sprague-Dawley, PDC in rat plasma, n = 6, mean ± SD; for CL/F: read-out: CLz/F (converted); for MRT last: read-out: MRT0–t; for MRT inf: read-out: MRT0–∞; for Vd/F: read-out: Vz/F; for half-life: read-out: t1/2z (converted)
Experimental: The analytical procedures described in Section 3.3 were performed to quantify PDC in rat plasma samples obtained from 24 male Sprague-Dawley rats. Out of these rats, 12 were orally administered with pure PDC, whereas 12 were orally administered with IRE. Establishing an intravenous dose group might provide the bioavailability of PDC, however, the present experiment aimed to compare the pharmacokinetic differences of PDC between monomer and IRE groups after oral administration. A fully validated LC-MS/MS method was developed and successfully applied to the pharmacokinetic behavior of PDC in rats after oral administration of the pure PDC and IRE, which were given at the same equivalent doses (42 and 84 mg/kg PDC). The mean plasma concentration-time profiles of PDC and the herbal extract after oral administration at different doses are illustrated in Figure 3, and the estimated pharmacokinetic parameters are presented in Table 4. A simple and rapid protein precipitation method was used for the preparation of all the plasma samples (calibration standards and QC samples, and real plasma samples post-dose). Plasma sample aliquots (75 µL) were added with IS solution (50 µL, 200 ng/mL) and methanol (500 µL) in tubes, then vortex-mixed for 1 min, and centrifuged at 14,000× g for 10 min. […] The dried residue was reconstituted in 100 µL of methanol-H2O (70:30, v/v) and centrifuged at 14,000× g for 5 min before analysis, and an aliquot of 5 µL was injected into LC-MS/MS systems for analysis. All experimental procedures and protocols were approved by the Animal Care and Use Committee of Jilin University (Changchun, China). All the rats were fasted for 12 h before the experiment, and were randomly divided into four groups (n = 6 per group). Group I and II were intragastrically administrated an oral dose of 42 and 84 mg/kg pure PDC, respectively. Group III and IV were intragastrically administrated an oral dose of 0.16 and 0.32 g/kg IRE, which was equivalent to 42 and 84 mg/kg PDC, respectively. Both pure PDC and IRE powder was suspended in 0.5% carboxymethyl cellulose sodium (CMC-Na) solution just before use. Blood samples (0.3 mL) were collected from the orbital sinus venous plexus at 0, 0.083, 0.25, 0.5, 0.75, 1, 1.5, 2, 3, 4, 6, 8, and 12 h after gavage dosing. After centrifuging at 5000× g for 10 min, the plasma samples were obtained and frozen at −20 °C until analysis. The pharmacokinetic parameters including Cmax, Tmax, t1/2z, AUC0–t, AUC0–∞, CLz/F, and Vz/F were calculated by non-compartmental method using the DAS 2.0 pharmacokinetics program (Chinese Pharmacology Society, Beijing, China). An independent-sample t-test was performed twice to evaluate the differences of pharmacokinetic parameters between the two groups.

[4] = processed rat plasma samples in autosampler, Post-preparation stability (4 °C for 12 h), nominal 0.60 ng/mL (LLOQ)
[5] = processed rat plasma samples in autosampler, Post-preparation stability (4 °C for 12 h), nominal 1.50 ng/mL (QC-low)
[6] = processed rat plasma samples in autosampler, Post-preparation stability (4 °C for 12 h), nominal 15.0 ng/mL (QC-medium)
[7] = processed rat plasma samples in autosampler, Post-preparation stability (4 °C for 12 h), nominal 180 ng/mL (QC-high)
[8] = rat plasma, Long-term stability (−20 °C for 2 months), nominal 0.60 ng/mL (LLOQ)
[9] = rat plasma, Long-term stability (−20 °C for 2 months), nominal 1.50 ng/mL (QC-low)
[10] = rat plasma, Long-term stability (−20 °C for 2 months), nominal 15.0 ng/mL (QC-medium)
[11] = rat plasma, Long-term stability (−20 °C for 2 months), nominal 180 ng/mL (QC-high)
[12] = rat plasma, Short-term (25 °C for 4 h), nominal 0.60 ng/mL (LLOQ)
[13] = rat plasma, Short-term (25 °C for 4 h), nominal 1.50 ng/mL (QC-low)
[14] = rat plasma, Short-term (25 °C for 4 h), nominal 15.0 ng/mL (QC-medium)
[15] = rat plasma, Short-term (25 °C for 4 h), nominal 180 ng/mL (QC-high)
[16] = rat plasma, Three freeze/thaw cycles (room temperature to −20 °C), nominal 0.60 ng/mL (LLOQ)
[17] = rat plasma, Three freeze/thaw cycles (room temperature to −20 °C), nominal 1.50 ng/mL (QC-low)
[18] = rat plasma, Three freeze/thaw cycles (room temperature to −20 °C), nominal 15.0 ng/mL (QC-medium)
[19] = rat plasma, Three freeze/thaw cycles (room temperature to −20 °C), nominal 180 ng/mL (QC-high)
[20] = 42 mg/kg PDC (IRE dosage equivalent to PDC dosage)
[21] = 84 mg/kg PDC (IRE dosage equivalent to PDC dosage)

Q: What does the source list for C[C@@H]1CC[C@]2(C(=O)O[C@@H]3O[C@H](CO)[C@@H](O)[C@H](O)[C@H]3O)CC[C@]3(C)C(=CC[C@@H]4[C@@]5(C)CC[C@H](O)[C@@](C)(CO)[C@@H]5CC[C@]43C)[C@@H]2[C@]1(C)O [PDC, Pedunculoside]?
A: hypolipidemic activity [1]: significant hypolipidemic activity; Determined Conc. (Mean ± SD) [2, 4]: 0.596 ± 0.011 ng/mL; RE [2, 4]: −0.60%; Determined Conc. (Mean ± SD) [2, 5]: 1.65 ± 0.10 ng/mL; RE [2, 5]: 10.04%; Determined Conc. (Mean ± SD) [2, 6]: 13.81 ± 0.63 ng/mL; RE [2, 6]: −7.91%; Determined Conc. (Mean ± SD) [2, 7]: 183.17 ± 2.59 ng/mL; RE [2, 7]: 1.76%; Determined Conc. (Mean ± SD) [2, 8]: 0.573 ± 0.008 ng/mL; RE [2, 8]: −4.56%; Determined Conc. (Mean ± SD) [2, 9]: 1.52 ± 0.16 ng/mL; RE [2, 9]: 1.11%; Determined Conc. (Mean ± SD) [2, 10]: 15.96 ± 0.68 ng/mL; RE [2, 10]: 6.39%; Determined Conc. (Mean ± SD) [2, 11]: 160.70 ± 7.58 ng/mL; RE [2, 11]: −10.72%; Determined Conc. (Mean ± SD) [2, 12]: 0.673 ± 0.014 ng/mL; RE [2, 12]: 12.24%; Determined Conc. (Mean ± SD) [2, 13]: 1.44 ± 0.09 ng/mL; RE [2, 13]: −3.77%; Determined Conc. (Mean ± SD) [2, 14]: 14.88 ± 1.03 ng/mL; RE [2, 14]: −0.77%; Determined Conc. (Mean ± SD) [2, 15]: 192.71 ± 11.42 ng/mL; RE [2, 15]: 7.06%; Determined Conc. (Mean ± SD) [2, 16]: 0.570 ± 0.016 ng/mL; RE [2, 16]: −5.00%; Determined Conc. (Mean ± SD) [2, 17]: 1.38 ± 0.162 ng/mL; RE [2, 17]: −7.82%; Determined Conc. (Mean ± SD) [2, 18]: 16.32 ± 1.37 ng/mL; RE [2, 18]: 8.81%; Determined Conc. (Mean ± SD) [2, 19]: 162.85 ± 15.57 ng/mL; RE [2, 19]: −9.53%; AUC(0-inf) [3, 20]: 379 ± 84.8 ng·h/mL; AUC(0-t) [3, 20]: 374 ± 82.9 ng·h/mL; Cmax [3, 20]: 95.2 ± 7.93 ng/mL; Tmax [3, 20]: 1.6 ± 0.42 h; CL/F [3, 20]: 1930 mL/min/kg; MRT last [3, 20]: 3.17 ± 0.45 h; MRT inf [3, 20]: 3.33 ± 0.48 h; Vd/F [3, 20]: 287 ± 63.5 L/kg; half-life [3, 20]: 1.73 ± 0.11 h; AUC(0-inf) [3, 21]: 665 ± 151 ng·h/mL; AUC(0-t) [3, 21]: 661 ± 149 ng·h/mL; Cmax [3, 21]: 174 ± 12.9 ng/mL; Tmax [3, 21]: 1.8 ± 0.91 h; CL/F [3, 21]: 2110 mL/min/kg; MRT last [3, 21]: 3.08 ± 0.42 h; MRT inf [3, 21]: 3.15 ± 0.44 h; Vd/F [3, 21]: 273 ± 45.6 L/kg; half-life [3, 21]: 1.5 ± 0.08 h

Reference: PMC6272306, “LC-MS/MS Determination and Pharmacokinetic Study of Pedunculoside in Rat Plasma after Oral Administration of Pedunculoside and Ilex rotunda Extract” (Molecules, 2015)
